Data taken from PMC12040169 (PLOS Biology, 2025).

assay: in vitro; conditions: human, hela cells, % viability

Point of comparison: `O=C(NC(=O)C1CCNCC1)Nc1ccccc1` [CBK034794], viability at 28.5 h, 10 µM 93.8%. Against it:
- Cc1noc(C)c1C[S+]([O-])c1ccc(Br)cc1 (centres unmarked) [CBK034195] — higher, 95.6%
- O=C(O)c1ccc(CCN2CCCC2)nc1 [CBK034220] — higher, 107%
- Cc1ccc(NC(=O)CSc2nnc(N)[nH]2)cc1 [CBK034301] — higher, 110%
- C/C=N\n1c(CO)nnc1CO [CBK034325] — lower, 86.5%
- CC(=O)Nc1c(C)ccc(S(=O)(=O)N2CCOCC2)c1C [CBK034327] — higher, 98.6%
- CCOC(=O)c1cccc(NS(=O)(=O)c2cc(F)c(Br)cc2F)c1 [CBK034333] — lower, 89.2%
- CC(=O)Nc1cc(S(=O)(=O)N2CCOCC2)c(Br)cc1C [CBK034334] — lower, 92.8%
- CCOC(=O)c1cccc(NS(=O)(=O)c2c(C)noc2C)c1 [CBK034339] — higher, 110%
- CCOC(=O)c1cccc(NS(=O)(=O)c2ccc(C)c([N+](=O)[O-])c2)c1 [CBK034343] — lower, 84.8%
- CCN(CC)C(=O)c1ccc(NS(=O)(=O)c2cc(F)c(Br)cc2F)cc1 [CBK034388] — lower, 90.1%
- CCN(CC)C(=O)c1ccc(NS(=O)(=O)Cc2ccccc2[N+](=O)[O-])cc1 [CBK034396] — higher, 97.1%
- Cc1noc(C)c1S(=O)(=O)Nc1ccc(C(=O)Nc2ccc(F)cc2)cc1 [CBK034410] — higher, 95.1%
- CCCCC(O)(Cc1onc(-c2ccccc2)c1C(=O)N(C)C)c1ccc(CN2CCCC2)cc1 (centres unmarked) [CBK034415T] — higher, 113%
- CCOC(=O)CNS(=O)(=O)c1ccc(Cl)c(Cl)c1Cl [CBK034428] — lower, 92%
- CCCc1ccc(S(=O)(=O)NCC(=O)OCC)cc1 [CBK034429] — higher, 113%
- CCOC(=O)CNS(=O)(=O)c1ccc(-c2ccccc2)cc1 [CBK034435] — higher, 99.5%
- CCOC(=O)CNS(=O)(=O)c1ccc(F)cc1 [CBK034442] — lower, 92.3%
- CCOC(=O)CNS(=O)(=O)c1ccc(C(F)(F)F)cc1[N+](=O)[O-] [CBK034446] — higher, 102%
- O=C(O)CNS(=O)(=O)c1cc(Cl)sc1Cl [CBK034452] — lower, 91.4%
- COc1ccc(S(=O)(=O)NCC(=O)O)cc1OC [CBK034454] — higher, 96.2%
- O=C(O)CNS(=O)(=O)c1cc(Br)c(Cl)s1 [CBK034455] — higher, 114%
- O=C(O)CNS(=O)(=O)c1ccc(-c2ccccc2)cc1 [CBK034457] — higher, 98.9%
- O=C(O)CNS(=O)(=O)c1ccc2ccccc2c1 [CBK034460] — higher, 94.1%
- O=C(O)CNS(=O)(=O)c1cccc2cccnc12 [CBK034462] — lower, 85.9%
- O=C(CNS(=O)(=O)c1ccc(Cl)c(Cl)c1Cl)N1CCOCC1 [CBK034472] — higher, 110%
- O=C(CNS(=O)(=O)c1cc(Br)c(Cl)s1)N1CCOCC1 [CBK034474] — higher, 100%
- CN1CCN(C(=O)CNS(=O)(=O)c2cc(F)c(Br)cc2F)CC1 [CBK034481] — higher, 99.5%
- CN1CCN(C(=O)CNS(=O)(=O)c2cc(Br)c(Cl)s2)CC1 [CBK034482] — higher, 94%
- CCN(CC)C(=O)CNS(=O)(=O)c1ccc(OC)c(OC)c1 [CBK034499] — higher, 103%
- CCN(CC)C(=O)CNS(=O)(=O)Cc1ccccc1[N+](=O)[O-] [CBK034504] — higher, 94.3%
- O=C(CN1CCCC1=O)N1CCN(C(=O)c2ccc(Br)o2)CC1 [CBK034530] — lower, 90.8%
- CCCc1ccc(S(=O)(=O)Nc2ccc(C(=O)N3CCN(C)CC3)cc2)cc1 [CBK034547] — lower, 90.1%
- CN1CCN(C(=O)c2ccc(NS(=O)(=O)c3ccc(Oc4ccccc4)cc3)cc2)CC1 [CBK034559] — higher, 97.4%
- O=S(=O)(Nc1nc(CCNCCO)cs1)c1ccc(Oc2ccccc2)cc1 [CBK034632] — higher, 111%
- Cc1ccc(NS(=O)(=O)c2c(Br)sc3ccnc(N4CCN(C)CC4)c23)cc1 [CBK034654C] — higher, 103%
- CC(NC(=O)N(CCCN)Cc1ccccc1C(F)(F)F)c1ccccc1 (centres unmarked) [CBK034668C] — higher, 99.9%
- CC(NC(=O)N(CCCN)Cc1c[nH]c(-c2ccccc2)n1)c1cccc2ccccc12 (centres unmarked) [CBK034672C] — higher, 119%
- COC(=O)c1sccc1NS(=O)(=O)c1ccccc1C(F)(F)F [CBK034717] — higher, 108%
- COc1ccc(S(=O)(=O)Nc2sccc2C#N)cc1 [CBK034732] — higher, 110%
- Cc1ccc(C#N)c(S(=O)(=O)Nc2cc(N3C[C@@H](C)N[C@@H](C)C3)c3occc3c2)c1 [CBK034756C] — lower, 89.7%
- CC(C)N1CCC(C(=O)NC(=O)Nc2ccc3c(c2)OCCO3)CC1 [CBK034799] — lower, 93.6%
- CC(C)N1CCC(C(=O)NC(=O)NCCOc2cccc3ccccc23)CC1 [CBK034807] — lower, 91.9%
- COc1cccc(CNC(=O)NC(=O)C2CCN(C)CC2)c1 [CBK034828] — lower, 91.9%
- COc1cc(CNC(=O)NC(=O)C2CCN(C(C)=O)CC2)cc(OC)c1OC [CBK034833] — higher, 105%
- CC(=O)N1CCC(C(=O)NC(=O)NCc2ccc(F)cc2)CC1 [CBK034834] — higher, 107%
- O=C(NCc1ccc(F)cc1)NC(=O)C1CCN(CCc2ccc(Br)cc2)CC1 [CBK034836] — higher, 95.2%
- COc1ccc(CNC(=O)NC(=O)C2CCN(C(C)=O)CC2)c(OC)c1 [CBK034839] — higher, 96.9%
- CC(=O)N1CCC(C(=O)NC(=O)NC2CCCCC2)CC1 [CBK034847] — higher, 99.4%
- CC(=O)N1CCC(C(=O)NC(=O)NCCc2ccccc2)CC1 [CBK034851] — higher, 96.9%
- O=C(NCc1ccccc1)NC(=O)C1CCN(CCCOc2cccc3ccccc23)CC1 [CBK034856] — lower, 84.6%
- COc1cc(CNC(=O)NC(=O)C2CCN(CCCc3ccc(Cl)c(Cl)c3)CC2)cc(OC)c1OC [CBK034858] — higher, 107%
- COc1cccc(CCNC(=O)NC(=O)C2CCN(S(C)(=O)=O)CC2)c1 [CBK034860] — higher, 99%
- Cc1ccccc1NC(=O)NC(=O)C1CCN(S(C)(=O)=O)CC1 [CBK034862] — lower, 87.7%
- Cc1ccc(NC(=O)NC(=O)C2CCN(S(C)(=O)=O)CC2)cc1 [CBK034863] — lower, 93.4%
- Cn1cc(CCN2CCC(C(=O)NC(=O)Nc3ccccc3)CC2)c2ccccc21 [CBK034867] — lower, 83.6%
- COc1ccc(CNC(=O)NC(=O)C2CCN(CCCc3ccc4c(c3)OCO4)CC2)c(OC)c1 [CBK034875] — higher, 100%
- CCOc1ccccc1NC(=O)NC(=O)C1CCN(C(C)c2ccc(Cl)cc2)CC1 (centres unmarked) [CBK034899] — higher, 98.4%
- CCOc1ccccc1NC(=O)NC(=O)C1CCN(CCCc2ccc3c(c2)OCO3)CC1 [CBK034924] — lower, 88.6%
- CC(C)NC(=O)NC(=O)C1CCN(CCCc2ccc(Cl)c(Cl)c2)CC1 [CBK034947] — lower, 89.8%
- Cc1ccc2[nH]cc(CCN3CCC(C(=O)NC(=O)Nc4ccccc4F)CC3)c2c1 [CBK034974] — lower, 93%
- Cc1ccc(NC(=O)NC(=O)C2CCN(CCc3ccc(F)cc3)CC2)cc1Cl [CBK035047] — lower, 89.5%
- Cc1ccc(NC(=O)NC(=O)C2CCN(CCCc3ccc(F)cc3)CC2)cc1Cl [CBK035057] — higher, 94.2%
- O=C(NC(=O)C1CCN(CCc2cccc(C(F)(F)F)c2)CC1)Nc1cccc2ccccc12 [CBK035070] — lower, 92.2%
- COc1ccc(Cl)cc1NC(=O)NC(=O)C1CCN(CCOc2cccc3ccccc23)CC1 [CBK035116] — lower, 90.9%
- O=C(NC(=O)C1CCN(CCc2ccc3c(c2)CCO3)CC1)Nc1ccccc1Cl [CBK035147] — lower, 84.3%
- CCNC(=O)NC(=O)C1CCN(CCc2ccc(O)c(OC)c2)CC1 [CBK035184] — higher, 102%
- O=C(NC(=O)C1CCN(CC2COc3ccccc3O2)CC1)Nc1ccccc1 (centres unmarked) [CBK035267] — lower, 92.4%
- COc1cc(CCN2CCC(c3nc(-c4ccccc4)c4ccccn34)CC2)cc(OC)c1OC [CBK035278] — lower, 91%
- Clc1ccc(-c2nc(C3CCN(CCc4ccccc4)CC3)n3ccccc23)cc1 [CBK035316] — lower, 90.7%
- COc1cccc(-c2nc(C3CCN(CCc4ccc(F)cc4)CC3)n3ccccc23)c1 [CBK035373] — higher, 94.7%
- c1ccc(-c2nc(C3CCNCC3)n3ccncc23)cc1 [CBK035434] — higher, 100%
- NCCc1nc(-c2ccccc2)c2cnccn12 [CBK035705] — higher, 101%
- CNCCc1nc(-c2cccs2)c2ccccn12 [CBK035905] — higher, 94.5%
- CNCCc1nc(-c2ccc(F)cc2)c2cnccn12 [CBK035927] — lower, 90.7%
- CS(=O)(=O)N1CCC(c2nc(-c3ccc(C(F)(F)F)cc3)c3ccccn23)CC1 [CBK036006] — lower, 86.4%
- COc1ccn2c(CCCN(C)C3Cc4ccccc4C3)nc(-c3ccc4c(c3)OCO4)c2c1 [CBK036303] — higher, 100%
- CN1CCC(Oc2ncccc2OCc2ccccc2)CC1 [CBK036311] — higher, 97.4%
- Cn1cc(-c2ccccc2CN2CCCC2)c2onc(-c3ccccc3)c2c1=O [CBK036319C] — higher, 115%
- CCCCCNC(=N)NC1Cc2ccccc2C1 [CBK036321T] — higher, 98.8%
- O=C(Nc1ccccc1N1CCCNCC1)c1ccnc2ccccc12 [CBK036325T] — lower, 83.4%
- CCOc1ccsc1C(=O)Nc1cc2ccccc2c(N2CCNCC2)n1 [CBK036341T] — higher, 99.3%
- CCOc1ccsc1C(=O)Nc1ccccc1N1CCCNCC1 [CBK036354T] — higher, 95.7%
- O=C(NCc1ccc(OC2CCNCC2)cc1)c1cnccn1 [CBK036359T] — higher, 104%
- Cn1cccc1C(=O)NCc1ccc(OC2CCNCC2)cc1 [CBK036360T] — lower, 93%
- COc1ccc(C(=O)Nc2cncc(OC3CCNCC3)n2)cc1 [CBK036370T] — higher, 94.4%
- N#Cc1ccc(C(=O)Nc2cncc(OC3CCNCC3)n2)cc1 [CBK036371T] — lower, 90.6%
- Cc1cc(C)cc(S(=O)(=O)c2ccc3ccnc(N4CCCNCC4)c3c2)c1 [CBK036413C] — lower, 87.1%

same assay, conditions: human, hela cells, % viability, bulk resorufin, single well

`COC(=O)c1cccc2c3c(n(Cc4ccccc4)c12)CCCC3=O` [CBK036304] showed a viability at 28.5 h, 10 µM of 94.7%.
